Test results reported in article doi:10.1101/2025.02.11.637513v1 (bioRxiv, 2025).
Non-standard residues stand in square brackets, D forms with d. No end group written: not given here. *: point of attachment. Phe(2-Cl) = N[C@@H](Cc1ccccc1Cl)C(=O)O; Met(O2) = CS(=O)(=O)CC[C@H](N)C(=O)O; Tic = O=C(O)[C@@H]1Cc2ccccc2CN1; Cha = N[C@@H](CC1CCCCC1)C(=O)O; Tle = CC(C)(C)[C@H](N)C(=O)O; Bn = c1ccc(C*)cc1

Columns and labels:
Test in all cases: tetrapeptide-ACC substrate cleavage kinetics
Format in all cases: biochemical
human caspase-1 = molecular target: T1, human caspase-1 (Homo sapiens, UniProt P29466); conditions: Ac-P4-P3-P2-Asp-ACC substrate, 0.05-500 μM, 2-15 nM enzyme, 37°C, triplicate
T1 sequence (P29466 120-297 limits assumed): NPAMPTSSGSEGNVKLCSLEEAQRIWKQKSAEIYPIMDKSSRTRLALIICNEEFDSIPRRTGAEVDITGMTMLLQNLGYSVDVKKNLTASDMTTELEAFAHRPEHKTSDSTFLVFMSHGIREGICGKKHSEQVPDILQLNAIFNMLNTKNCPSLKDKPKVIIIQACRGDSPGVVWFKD
T1 sequence (P29466 317-404 limits assumed): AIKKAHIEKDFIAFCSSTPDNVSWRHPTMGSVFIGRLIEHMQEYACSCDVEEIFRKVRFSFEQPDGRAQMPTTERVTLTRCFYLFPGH

human caspase-3 = molecular target: T2, human caspase-3 (Homo sapiens, UniProt P42574); conditions: Ac-P4-P3-P2-Asp-ACC substrate, 0.05-500 μM, 3-35 nM enzyme, 37°C, triplicate
T2 sequence (P42574 29-175 limits assumed): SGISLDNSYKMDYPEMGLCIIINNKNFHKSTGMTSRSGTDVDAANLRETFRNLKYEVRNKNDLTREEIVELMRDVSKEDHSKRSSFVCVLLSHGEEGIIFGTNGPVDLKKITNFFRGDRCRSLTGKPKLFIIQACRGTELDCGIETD
T2 sequence (P42574 176-277 limits assumed): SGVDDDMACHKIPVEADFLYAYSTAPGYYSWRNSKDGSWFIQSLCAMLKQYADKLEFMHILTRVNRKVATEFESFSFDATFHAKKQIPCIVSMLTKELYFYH

human caspase-4 = molecular target: T3, human caspase-4 (Homo sapiens, UniProt P49662); conditions: Ac-P4-P3-P2-Asp-ACC substrate, 0.05-500 μM, 35-200 nM enzyme, 37°C, triplicate
T3 sequence (P49662 81-270 limits assumed): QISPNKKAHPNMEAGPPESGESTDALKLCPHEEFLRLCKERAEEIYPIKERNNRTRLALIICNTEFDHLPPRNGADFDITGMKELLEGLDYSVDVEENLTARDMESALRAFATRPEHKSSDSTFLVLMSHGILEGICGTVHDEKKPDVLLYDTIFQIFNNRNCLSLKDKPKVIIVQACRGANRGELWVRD
T3 sequence (P49662 290-377 limits assumed): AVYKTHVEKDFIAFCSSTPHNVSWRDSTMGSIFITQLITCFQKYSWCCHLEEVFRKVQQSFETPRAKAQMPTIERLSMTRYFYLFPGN

human caspase-8 = human caspase-8 (Homo sapiens, UniProt Q14790); conditions: Ac-P4-P3-P2-Asp-ACC substrate, 0.05-500 μM, 6-42 nM enzyme, 37°C, triplicate
human caspase-9 = molecular target: T4, human caspase-9 (Homo sapiens, UniProt P55211); conditions: Ac-P4-P3-P2-Asp-ACC substrate, 0.05-500 μM, 20-150 nM enzyme, 37°C, triplicate
T4 sequence (P55211 1-315 limits assumed): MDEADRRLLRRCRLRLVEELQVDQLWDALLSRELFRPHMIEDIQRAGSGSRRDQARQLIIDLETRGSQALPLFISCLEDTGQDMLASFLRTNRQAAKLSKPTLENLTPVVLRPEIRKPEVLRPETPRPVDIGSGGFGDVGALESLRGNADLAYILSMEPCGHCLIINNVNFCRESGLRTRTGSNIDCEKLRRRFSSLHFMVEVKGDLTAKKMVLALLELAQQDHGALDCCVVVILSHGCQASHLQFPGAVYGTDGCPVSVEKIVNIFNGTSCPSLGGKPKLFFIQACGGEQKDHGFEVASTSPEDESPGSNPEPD
T4 sequence (P55211 331-416 limits assumed): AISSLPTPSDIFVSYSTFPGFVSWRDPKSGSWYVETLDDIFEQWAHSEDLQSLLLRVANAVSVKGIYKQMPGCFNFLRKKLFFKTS

human caspase-7 = molecular target: T5, human caspase-7 (Homo sapiens, UniProt P55210); conditions: Ac-P4-P3-P2-Asp-ACC substrate, 0.05-500 μM, 40-400 nM enzyme, 37°C, triplicate
T5 sequence (P55210 24-198 limits assumed): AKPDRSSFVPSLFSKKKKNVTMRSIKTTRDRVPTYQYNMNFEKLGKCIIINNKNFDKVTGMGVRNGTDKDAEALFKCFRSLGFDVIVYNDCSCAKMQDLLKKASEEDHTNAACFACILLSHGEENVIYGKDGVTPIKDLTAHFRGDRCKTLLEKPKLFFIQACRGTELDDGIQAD
T5 sequence (P55210 207-303 limits assumed): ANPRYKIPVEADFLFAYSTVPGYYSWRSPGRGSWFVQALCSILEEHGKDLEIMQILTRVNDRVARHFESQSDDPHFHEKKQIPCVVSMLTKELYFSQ

human caspase-5 = molecular target: T6, human caspase-5 (Homo sapiens, UniProt P51878); conditions: Ac-P4-P3-P2-Asp-ACC substrate, 0.05-500 μM, 20-250 nM enzyme, 37°C, triplicate
T6 sequence (P51878 137-327 limits assumed): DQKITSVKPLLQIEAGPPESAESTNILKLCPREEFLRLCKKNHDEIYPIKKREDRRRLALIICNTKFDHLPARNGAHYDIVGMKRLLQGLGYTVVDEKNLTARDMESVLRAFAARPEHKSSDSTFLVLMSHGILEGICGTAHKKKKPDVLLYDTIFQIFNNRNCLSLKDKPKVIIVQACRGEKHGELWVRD
T6 sequence (P51878 347-434 limits assumed): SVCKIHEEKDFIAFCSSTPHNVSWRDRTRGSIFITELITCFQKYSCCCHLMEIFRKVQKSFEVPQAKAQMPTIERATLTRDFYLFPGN

Sequence of human caspase-8 (Q14790 217-374 limits assumed): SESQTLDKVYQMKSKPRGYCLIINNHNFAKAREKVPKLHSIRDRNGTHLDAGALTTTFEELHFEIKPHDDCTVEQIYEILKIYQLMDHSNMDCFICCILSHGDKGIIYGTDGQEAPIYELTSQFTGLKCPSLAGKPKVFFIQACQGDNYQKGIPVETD
Sequence of human caspase-8 (Q14790 385-479 limits assumed): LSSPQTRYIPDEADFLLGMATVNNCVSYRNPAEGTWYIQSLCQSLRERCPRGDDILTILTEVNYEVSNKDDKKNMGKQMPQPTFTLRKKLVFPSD

Substance	kcat/KM caspase-1 (human caspase-1)	kcat/KM caspase-3 (human caspase-3)	kcat/KM caspase-4 (human caspase-4)	kcat/KM caspase-8 (human caspase-8)	kcat/KM caspase-9 (human caspase-9)	kcat/KM caspase-7 (human caspase-7)	kcat/KM caspase-5 (human caspase-5)
Leu-Glu-His-Asp	97 500 M^-1s^-1	12 600 M^-1s^-1	8 950 M^-1s^-1	186 000 M^-1s^-1	12 700 M^-1s^-1	730 M⁻¹ s⁻¹	21 500 M^-1s^-1
Val-Trp-His-Asp	7 700 M^-1s^-1	9 980 M^-1s^-1	1 010 M^-1s^-1	3 500 M^-1s^-1	8 880 M^-1s^-1	210 M⁻¹ s⁻¹	60 M⁻¹ s⁻¹
Val-hGlu-Thr(Bzl)-Asp	21 700 M^-1s^-1	163 200 M^-1s^-1	1 840 M^-1s^-1	85 540 M^-1s^-1	6 770 M^-1s^-1	16 800 M^-1s^-1	5 430 M^-1s^-1
Ile-Glu-Thr-Asp	1 430 M^-1s^-1	21 200 M^-1s^-1	1 010 M^-1s^-1	95 400 M^-1s^-1	2 300 M^-1s^-1	3 400 M^-1s^-1	2 850 M^-1s^-1
Trp-Gln-Pro-Asp	124 300 M^-1s^-1	1 410 M^-1s^-1	3 470 M^-1s^-1	2 480 M^-1s^-1	190 M⁻¹ s⁻¹	70 M⁻¹ s⁻¹	5 420 M^-1s^-1
W(Me)Q[Tic]D	268 600 M^-1s^-1	4 340 M^-1s^-1	11 300 M^-1s^-1	2 580 M^-1s^-1	1 140 M^-1s^-1	290 M⁻¹ s⁻¹	14 500 M^-1s^-1
Tyr-Glu-Lys-Asp	39 500 M^-1s^-1	580 M⁻¹ s⁻¹	750 M⁻¹ s⁻¹	2 720 M^-1s^-1	130 M⁻¹ s⁻¹	80 M⁻¹ s⁻¹	3 430 M^-1s^-1
[Tle][Phe(2-Cl)]HD	31 900 M^-1s^-1	26 070 M^-1s^-1	4 030 M^-1s^-1	6 220 M^-1s^-1	8 070 M^-1s^-1	350 M⁻¹ s⁻¹	6 990 M^-1s^-1
W[Met(O2)]HD	547 600 M^-1s^-1	4 970 M^-1s^-1	9 620 M^-1s^-1	2 380 M^-1s^-1	6 700 M^-1s^-1	60 M⁻¹ s⁻¹	15 430 M^-1s^-1
Pro-Bip-His(Bzl)-Asp	13 800 M^-1s^-1	1 260 M^-1s^-1	590 M⁻¹ s⁻¹	2 750 M^-1s^-1	6 990 M^-1s^-1	40 M⁻¹ s⁻¹	310 M⁻¹ s⁻¹
VY(Bn)HD	7 300 M^-1s^-1	6 900 M^-1s^-1	350 M⁻¹ s⁻¹	2 610 M^-1s^-1	1 790 M^-1s^-1	180 M⁻¹ s⁻¹	660 M⁻¹ s⁻¹
Tyr-Gln-Pro-Asp	47 200 M^-1s^-1	1 920 M^-1s^-1	740 M⁻¹ s⁻¹	2 170 M^-1s^-1	350 M⁻¹ s⁻¹	300 M⁻¹ s⁻¹	1 590 M^-1s^-1
Val-Asp-His-Asp	6 950 M^-1s^-1	19 860 M^-1s^-1	880 M⁻¹ s⁻¹	16 670 M^-1s^-1	6 220 M^-1s^-1	910 M⁻¹ s⁻¹	4 830 M^-1s^-1
[Cha]E[Tic]D	159 100 M^-1s^-1	10 440 M^-1s^-1	37 900 M^-1s^-1	7 860 M^-1s^-1	7 760 M^-1s^-1	950 M⁻¹ s⁻¹	28 860 M^-1s^-1
Tyr-Lys-Ala-Asp	10 800 M^-1s^-1	< 10 M⁻¹ s⁻¹	140 M⁻¹ s⁻¹	210 M⁻¹ s⁻¹	50 M⁻¹ s⁻¹	< 10 M⁻¹ s⁻¹	180 M⁻¹ s⁻¹
